Target: 5-lipoxygenase (Cavia porcellus)
Assay: In vitro 5-lipoxygenase inhibitory activity against A-23187-stimulated conversion of [14C]AA to LTB4 in guinea pig peritoneal polymorphonuclear leukocytes

NC(=O)N(O)C[C@H]1COc2ccc(Oc3ccc(F)cc3)cc2O1 [(2S)-2-[[N-(aminocarbonyl)-N-hydroxyamino]methyl]-7-(4-fluorophenoxy)-1,4-benzodioxan]
IC50: 0.097 µM
